“Also recorded” adds a separate entry of the source. Like-named read-outs stand apart in the source and are kept apart here.
Key:
[1] = water; cited from earlier work
[2] = Heat stability studies: HPLC peak area change after heating, hot water or hot coffee; assay type: physicochemical; conditions: for Effect of dilution with hot water and coffee on vitamin concentration: dilution with hot water or hot coffee, 80° C. or 100° C.; for Effect of heating solutions on vitamin concentration: heating to either 80° C. or 100° C. for 15 minutes; for % Deviation: vs control; for Vitamin degradation, Water 80° C.: diluted with hot water 80° C.; for Vitamin degradation, Water 100° C.: diluted with hot water 100° C.; for Vitamin degradation, Heat 80° C.: solution heated 80° C.; for Vitamin degradation, Heat 100° C.: solution heated 100° C.
Procedure: Vitamins were divided into two groups, depending on their solubility. “High concentration” vitamins were sufficiently soluble to be detected by the. HPLC analysis after 1/250 dilution. “Low concentration” vitamins were not sufficiently soluble and could not be detected after 1/250 dilution and therefore a different procedure was adopted for these compounds as described below.
High concentration vitamin (B1, B3, B5, B6) solutions
Solutions were prepared immediately before use in duplicate, using four different methods, described below: a. Dilute 1 mL of each standard solution to 250 mL with Milli-Q water at room temperature (control sample) […]
b. […] Then take a 1 mL sample from each tube and dilute to 250 mL with Milli-Q water at room temperature. c. Dilute 1 mL of each solution to 250 mL with hot water (80° C. or 100° C.). Leave for 15 minutes, then take a sample and cool immediately to room temperature. d. Dilute 1 mL of each solution to 250 mL with hot coffee (80° C. or 100° C.). Leave for 15 minutes, then take a sample and cool immediately to room temperature.
Low Concentration Vitamin (B2, B7, B9, B12) Solutions
Standard solutions were freshly prepared with Milli-Q water as described above. The test solutions below were then immediately prepared in duplicate: a. Use undiluted (control sample)
HPLC conditions were as described above.
(§1) The percentage change in individual vitamin concentrations relative to the control sample was calculated as: 100×(Atest−Acontrol)/Acontrol, where Atest and Acontrol are peak area ratios (analyte/intemal standard) for the test and control solutions respectively.
All statistical analyses were performed with SPSS 16.

[3] = Long term storage stability studies: HPLC, solutions stored at RT and 4° C. for up to 4 months; conditions: for Long term storage stability of vitamin solution: stored at RT or 4° C., 4 month period; for Time to achieve significant falls at 4° C.: aqueous solution stored at 4° C.; for Time to achieve significant falls at RT: aqueous solution stored at RT
Procedure: Heat was applied by different methods, including placing the solution in a test tube in a bath of hot water (80° C. or 100° C.) for 15 minutes, or by mixing a concentrated solution with hot water or hot coffee (80° C. or 100° C. for both) for an equivalent time. Long term stability studies were carried out by storing individual vitamin solutions at room temperature and at 4° C. for up to 4 months and sampling these solutions at various intervals. Degradation was assessed by the change in peak area of the HPLC peak specific to each particular compound.
Vitamin solutions were prepared as for the Heat Stability Studies.
Replicate aliquots of these solutions were placed in four 15 mL Falcon tubes. Two of these tubes were stored on a shelf at room temperature (RT) in the laboratory and two in the cold room (4° C.).
At 0, 0.5, 1, 1.5, 2, 3.5, and 4 months, samples were taken from each vial for
HPLC analysis. The high concentration vitamin samples (vitamins BI, B3, B5, and B6) were diluted to 1:250 with Milli-Q water before injection and the low concentration vitamin samples (vitamins B2, B7, B9, and B12) were injected undiluted.
Samples from each of the duplicate solutions described above were injected onto the HPLC in duplicate. HPLC conditions were as described above.
Duplicate injections of the two samples were made and the mean of the four results was reported.
as §1
For the heat stability studies, statistical analysis was performed by Students t-test. For the storage stability studies, statistical analysis was performed by univariate ANOVA (General Linear Model). All statistical analyses were performed with SPSS 16.

[4] = high concentration vitamin solution, matrix coffee: diluted 1/250 with hot coffee 80° C., 15 minutes
[5] = high concentration vitamin solution, matrix coffee: diluted 1/250 with hot coffee 100° C., 15 minutes
[6] = high concentration vitamin solution, matrix heated: tube in hot water 80° C., 15 minutes
[7] = high concentration vitamin solution, matrix heated: tube in hot water 100° C., 15 minutes
[8] = high concentration vitamin solution, matrix hot water: diluted 1/250 with hot water 80° C., 15 minutes
[9] = high concentration vitamin solution, matrix hot water: diluted 1/250 with hot water 100° C., 15 minutes
[10] = greatest percentage change over the 4 month testing period, † non-significant, * significant, ‡ transient at 2 weeks
[11] = storage at RT and 4° C. for up to 4 months
[12] = low concentration vitamin solution, undiluted, heated to 80° C., 15 minutes
[13] = low concentration vitamin solution, undiluted, heated to 100° C., 15 minutes
[14] = up to 4 months, — = no significant fall

Molecule | Effect of dilution with hot water and coffee on vitamin concentration [2] | Effect of heating solutions on vitamin concentration [2] | % Deviation [2, 4] [%] | % Deviation [2, 5] [%] | % Deviation [2, 6] [%] | % Deviation [2, 7] [%] | % Deviation [2, 8] [%] | % Deviation [2, 9] [%] | Vitamin degradation, Storage 4° C. [3, 10] | Vitamin degradation, Storage RT [3, 10] | Comment (long term storage stability) [3, 11] | % Deviation [2, 12] [%] | % Deviation [2, 13] [%] | Time to achieve significant falls at 4° C. [3, 14] [weeks] | Aq. solubility [1] [µg/mL] | Long term storage stability of vitamin solution [3] | Vitamin degradation, Heat 80° C. ([2]; summary, 15 minutes) | Vitamin degradation, Heat 100° C. ([2]; summary, 15 minutes) | other results
Cc1ncc(CO)c(CO)c1O.Cl [Vitamin B6, pyroxidine hydrochloride] | unaffected | not affected | −0.63 | −1.47 | 0.05 | −0.28 | 1.39 | 1.64 |  |  |  |  |  |  |  |  |  |  | Comment (long term storage stability) [3]: Stable for 4 months; Vitamin degradation, Storage 4° C. [3]: † −2.5%; Vitamin degradation, Storage RT [3]: † −1.5%
O=C(O)CCCC[C@@H]1SC[C@@H]2NC(=O)N[C@@H]21 [Vitamin B7, biotin] |  | not significantly affected |  |  |  |  |  |  | −27.4% ‡ | −15.9% ‡ | Stable for 4 months | −0.47 | −1.89 |  | 220 | varying levels of degradation; also recorded: no statistically significant degradation; also recorded: transient reductions | †† (non-significant reductions in vitamin concentrations of <2% in response to heat treatment) | †† (non-significant reductions in vitamin concentrations of <2% in response to heat treatment) | 
Nc1nc2ncc(CNc3ccc(C(=O)N[C@@H](CCC(=O)O)C(=O)O)cc3)nc2c(=O)[nH]1 [Vitamin B9, folic acid] |  | Statistically significant reductions |  |  |  |  |  |  | −13.7% * | −100.0% * | At RT, undetectable | −1.92 | −2.26 | 2 | 1.6 | varying levels of degradation; also recorded: Significant degradation |  |  | Time to achieve significant falls at RT [3, 14]: 2 weeks; Comment: At 4° C., significant change only at ([3]; storage at 4° C.): 2 weeks.; Further fall in levels at 1 month ([3]; storage at 4° C., 1 month, beyond the fall at 2 weeks): 5.7%; Degradation after 2 weeks at 4° C. ([3]; storage at 4° C.): 8.0%; Maximum degradation on storage at 4° C. ([3]; storage at 4° C., 4 months): 13.7%; Degradation after 2 weeks at RT ([3]; storage at RT): 10.0%; Level on storage at RT after the 2 week sample ([3]; storage at RT, sampling times from 1 month to 4 months): undetectable; also recorded: complete elimination
calcium (+)-pantothenate [Vitamin B5] | unaffected | Statistically significant reductions | 1.78 | 0.31 | −2.78 | −2.27 | −0.77 | −1.15 | −3.9% * | −3.3% * |  |  |  | 2 |  | varying levels of degradation; also recorded: significant degradation |  |  | Vitamin degradation, Coffee 80° C. ([2]; summary, diluted with hot coffee 80° C., 15 minutes): †† (non-significant reductions in vitamin concentrations of <2% in response to heat treatment); Vitamin degradation, Coffee 100° C. ([2]; summary, diluted with hot coffee 100° C., 15 minutes): †† (non-significant reductions in vitamin concentrations of <2% in response to heat treatment); Vitamin degradation, Water 80° C. ([2]; summary, 15 minutes): †† (non-significant reductions in vitamin concentrations of <2% in response to heat treatment); Vitamin degradation, Water 100° C. ([2]; summary, 15 minutes): †† (non-significant reductions in vitamin concentrations of <2% in response to heat treatment); Time to achieve significant falls at RT ([3]; up to 4 months): 1.5 months; Comment: Falls sustained to ([3]; storage at RT and 4° C.): 4 months; Comment: size of falls at all times ([3]; storage at RT and 4° C., up to 4 months): < 5%; Degradation at any time for either temperature ([3]; storage at RT or 4° C., entire 4 month test period): less than 4%
cyanocobalamin [Vitamin B12] |  | not significantly affected |  |  |  |  |  |  | † −1.4% | † −1.2% |  | −0.14 | −0.18 |  | 12.5 | stable; also recorded: no statistically significant degradation | †† (non-significant reductions in vitamin concentrations of <2% in response to heat treatment) | †† (non-significant reductions in vitamin concentrations of <2% in response to heat treatment) | 

Second part, led by results:

Effect of dilution with hot water and coffee on vitamin concentration [2] | Effect of heating solutions on vitamin concentration [2] | % Deviation [2, 4] [%] | % Deviation [2, 5] [%] | % Deviation [2, 6] [%] | % Deviation [2, 7] [%] | % Deviation [2, 8] [%] | % Deviation [2, 9] [%] | Vitamin degradation, Storage 4° C. [3, 10] | Vitamin degradation, Storage RT [3, 10] | Comment (long term storage stability) [3, 11] | % Deviation [2, 12] [%] | % Deviation [2, 13] [%] | Time to achieve significant falls at 4° C. [3, 14] [weeks] | Molecule | Aq. solubility [1] [µg/mL] | Long term storage stability of vitamin solution [3] | Vitamin degradation, Heat 80° C. ([2]; summary, 15 minutes) | Vitamin degradation, Heat 100° C. ([2]; summary, 15 minutes) | other results
unaffected | not affected | 0.46 | 0.58 | 0.33 | 0.22 | −0.04 | −0.26 | † −2.8% | † −2.4% | Stable for 4 months |  |  |  | Cc1ncc(C[n+]2csc(CCO)c2C)c(N)n1 [Vitamin B1, Thiamine] | 500000 | stable; also recorded: no statistically significant degradation |  |  | 
 | not significantly affected |  |  |  |  |  |  | −33.6% * | −24.7% * |  | 1.5 | 2.85 | 2 | Cc1cc2nc3c(=O)[nH]c(=O)nc-3n(C[C@H](O)[C@H](O)[C@H](O)CO)c2cc1C [Vitamin B2, riboflavin] |  | varying levels of degradation; also recorded: little further degradation; also recorded: Significant degradation |  |  | Time to achieve significant falls at RT [3, 14]: 2 weeks; Degradation after 2 weeks at 4° C. ([3]; storage at 4° C.): 33.6%; Comment: Falls sustained to ([3]; storage at RT and 4° C.): 4 months; Degradation after 2 weeks at RT ([3]; storage at RT): 24.7%
Statistically significant reductions | not affected | −3.72 | −3.62 | −0.24 | −0.86 | 0.33 | 0.4 | † −1.1% | † −1.8% | Stable for 4 months |  |  |  | NC(=O)c1cccnc1 [Vitamin B3, niacinamide] |  | stable; also recorded: no statistically significant degradation | †† (non-significant reductions in vitamin concentrations of <2% in response to heat treatment) | †† (non-significant reductions in vitamin concentrations of <2% in response to heat treatment) | Vitamin degradation, Water 80° C. ([2]; summary, 15 minutes): †† (non-significant reductions in vitamin concentrations of <2% in response to heat treatment); Vitamin degradation, Water 100° C. ([2]; summary, 15 minutes): †† (non-significant reductions in vitamin concentrations of <2% in response to heat treatment)
